Test results from patent US20110028566A1, “COMPOSITIONS AND PRODUCTS CONTAINING CYCLOALIPHATIC DIOL ANTIMICROBIAL AGENTS AND METHODS OF USING THE COMPOSITIONS AND PRODUCTS” (EASTMAN CHEMICAL COMPANY, priority 2009, published 2011).

Experiments:
Aspergillus niger = test: Microbial challenge testing in BPW; assay type: cell-based; details: for Grade code, A. niger, 3 Day / Grade code, A. niger, 13 Day / Grade code, A. niger, 30 Day: BPW, w/v % in label, average of replicates
Method: (§1) The microorganisms used in challenge tests are given in Table 3, designated as either ATCC (American Type Culture Collection) or wild type. These wild type organisms were problematic organisms previously isolated from chemical products. In the description for each organism, the bacteria are indicated as either GN (Gram negative) or GP (Gram positive).
(§2) All of the microorganisms were grown in Tryptose Soy Broth (TSB), DIFCO™ available from Becton, Dickinson and Company, containing 1% dextrose. Aspergillus niger and Candida albicans were incubated at 22° C.±2° C. for at least 96 hours. All bacteria were incubated at 35° C.±2° C. in a humidified incubator for at least 96 hours.
(§3) Aspergillus niger and Candida albicans were also grown on Sabouraud dextrose agar (SDA) at 22° C.±2° C. for 7 to 14 days or until full sporulation was achieved.
(§4) The following procedure was followed to determine the amount of each challenge material (inoculum broth) required to produce a 10^8 cfu/mL challenge, which is equivalent to a final test-sample microbial concentration of 10^5 to 10^6 cfu (colony-forming units)/mL.
(§5) Using a sterile serological pipette, 1 mL of the growth from each TSB culture was transferred into tubes containing 9 mL phosphate buffer (pH 7.2) and mixed thoroughly. This process was repeated to make serial 1:10 dilutions. Then 0.1 mL of each sample and dilution was inoculated onto agar plates to produce the equivalent of a further 1:10 dilution. C. albicans and A. niger were inoculated onto SDA and bacteria were inoculated onto Plate Count Agar (PCA), DIFCO™ available from Becton, Dickinson and Company. The 0.1 mL aliquots were evenly distributed on the plates using the spread-plate technique. The spread-plate technique is performed by spreading the aliquot over the entire plate surface using a sterile spreading rod while rotating the plate with a rotary auto-plater. After the inoculum was absorbed completely, each plate was inverted and incubated (fungi at 22° C.±2° C. and bacteria at 35° C.±2° C.).
(§6) After incubation for at least 48 hours, colonies that had developed on the agar plates were counted and recorded with the corresponding dilution. If counting had to be delayed temporarily, plates were refrigerated, preferably no more than 24 hours, until they could be counted. The number of cfu/mL was determined by multiplying the count by the dilution factor for that particular plate.
(§7) Turbidity in Nepholemetric Turbidity Units (NTU) was measured for each serial dilution using the HF-Micro 100 Model Turbidimeter. For each microorganism, the plate counts were compared to the turbidity readings.
Aspergillus niger cultures were harvested and spores dislodged from the SDA on which they were grown by rubbing the growth gently with a sterile inoculating loop. The spores were then mixed into the broth culture that had been incubated with a sterile magnetic stir bar to reduce pellicle formation. The spore-culture mixture was filtered repeatedly through sterile, non-absorbent cotton and harvested repeatedly, adjusting vegetative cells and spores to a level of 1.0×10^8. A hemocytometer was used to verify the final challenge concentration.
(§8) Control substrates (“broth alone”) were prepared for each microorganism separately in triplicate by adding 13.5 mL of BPW (pH 7.0) containing 1% (w/v) dextrose to each 20-mL glass tube; then adding 1.5 mL challenge material to produce a final concentration at time zero of 10^5 to 10^6 cfu/mL and a total volume of 15 mL.
(§9) Test sample substrates were prepared containing each test material (1,4-CHDM, etc) or combination of test materials at the concentrations shown in Tables 5 and 6.

Candida albicans = test: Microbial challenge testing in BPW; assay type: cell-based; details: for Grade code, C. albicans, 3 Day / Grade code, C. albicans, 14 Day / Grade code, C. albicans, 30 Days: BPW, w/v % in label, average of replicates
Method: as §1, §2, §3, §4, §5, §6, §7
On the day of challenge, the Candida albicans inoculum broth was poured through non-absorbent sterile gauze and centrifuged. The […] was then diluted with phosphate buffer (pH 7.2) until the desired turbidity was reached. Using a hemocytometer, a determination was made whether the challenge contained the desired concentration. Dilutions were made through 1.0×10^8 and three SDA spread plates were inoculated with 0.1 mL of each dilution.
as §8, §9

[1] = 3 days incubation, listed as 0.5% AB
[2] = 3 days incubation, listed as 1.25% AB
[3] = 3 days incubation, listed as 2.5% AB
[4] = 30 days incubation, listed as 0.5% AB
[5] = 30 days incubation, listed as 1.25% AB
[6] = 30 days incubation, listed as 2.5% AB

Compound | Grade code A. niger (Aspergillus niger; 0.5%, 3 days incubation) | Grade code A. niger (Aspergillus niger; 0.5%, 13 days incubation) | Grade code A. niger (Aspergillus niger; 0.5%, 30 days incubation) | Grade code A. niger (Aspergillus niger; 1.25%, 3 days incubation) | Grade code A. niger (Aspergillus niger; 1.25%, 13 days incubation) | Grade code A. niger (Aspergillus niger; 1.25%, 30 days incubation) | Grade code A. niger (Aspergillus niger; 2.5%, 3 days incubation) | Grade code A. niger (Aspergillus niger; 2.5%, 13 days incubation) | Grade code A. niger (Aspergillus niger; 2.5%, 30 days incubation) | Grade code C. albicans (Candida albicans; 0.5%, 3 days incubation) | Grade code C. albicans (Candida albicans; 0.5%, 14 days incubation) | Grade code C. albicans (Candida albicans; 0.5%, 30 days incubation) | Grade code C. albicans (Candida albicans; 1.25%, 3 days incubation) | Grade code C. albicans (Candida albicans; 1.25%, 14 days incubation) | Grade code C. albicans (Candida albicans; 1.25%, 30 days incubation) | Grade code C. albicans (Candida albicans; 2.5%, 3 days incubation) | Grade code C. albicans (Candida albicans; 2.5%, 14 days incubation) | Grade code C. albicans (Candida albicans; 2.5%, 30 days incubation) | Grade code, A. niger, 3 Day (Aspergillus niger; 3 days incubation) | Grade code, C. albicans, 3 Day (Candida albicans; 3 days incubation) | other results
OCC1CCC(CO)CC1 (centres unmarked) [1,4-CHDM, 1,4-cyclohexanedimethanol] | 4 | 4 | 4 | 4 | 4 | 4 | 2 (Countable (11 to 100 colonies)) | 1 (Countable (1 to 10 colonies)) | 2.3 | 3 (101 to 1000 colonies (thus 1000 to 10,000 cfu/mL)) | 4 (1001 to 10,000 colonies (thus 10,000 cfu/mL to 100,000 cfu/mL)) | 4 (1001 to 10,000 colonies (thus 10,000 cfu/mL to 100,000 cfu/mL)) | 1 (1 to 51 colonies counted (thus 10 to 510 cfu/mL)) | 3 (101 to 1000 colonies (thus 1000 to 10,000 cfu/mL)) | 4 (1001 to 10,000 colonies (thus 10,000 cfu/mL to 100,000 cfu/mL)) | 0 (No growth detected or <1 colony (thus <10 cfu/mL)) | 2 (52 to 100 colonies counted (thus 520 to 1000 cfu/mL)) | 1 (1 to 51 colonies counted (thus 10 to 510 cfu/mL)) |  |  | Grade code, A. niger, 3 Day (Aspergillus niger; [1]): 4; Grade code, A. niger, 3 Day (Aspergillus niger; [2]): 4; Grade code, A. niger, 3 Day (Aspergillus niger; [3]): 2 (Countable (11 to 100 colonies)); Grade code, A. niger, 13 Day (Aspergillus niger; 13 days incubation, listed as 0.5% AB): 4; Grade code, A. niger, 13 Day (Aspergillus niger; 13 days incubation, listed as 1.25% AB): 4; Grade code, A. niger, 13 Day (Aspergillus niger; 13 days incubation, listed as 2.5% AB): 1 (Countable (1 to 10 colonies)); Grade code, A. niger, 30 Day (Aspergillus niger; [4]): 4; Grade code, A. niger, 30 Day (Aspergillus niger; [5]): 4; Grade code, A. niger, 30 Day (Aspergillus niger; [6]): 2.3; Grade code, C. albicans, 3 Day (Candida albicans; [1]): 3 (101 to 1000 colonies (thus 1000 to 10,000 cfu/mL)); Grade code, C. albicans, 3 Day (Candida albicans; [2]): 1 (1 to 51 colonies counted (thus 10 to 510 cfu/mL)); Grade code, C. albicans, 3 Day (Candida albicans; [3]): 0 (No growth detected or <1 colony (thus <10 cfu/mL)); Grade code, C. albicans, 14 Day (Candida albicans; 14 days incubation, listed as 0.5% AB): 4 (1001 to 10,000 colonies (thus 10,000 cfu/mL to 100,000 cfu/mL)); Grade code, C. albicans, 14 Day (Candida albicans; 14 days incubation, listed as 1.25% AB): 3 (101 to 1000 colonies (thus 1000 to 10,000 cfu/mL)); Grade code, C. albicans, 14 Day (Candida albicans; 14 days incubation, listed as 2.5% AB): 2 (52 to 100 colonies counted (thus 520 to 1000 cfu/mL)); Grade code, C. albicans, 30 Days (Candida albicans; [4]): 4 (1001 to 10,000 colonies (thus 10,000 cfu/mL to 100,000 cfu/mL)); Grade code, C. albicans, 30 Days (Candida albicans; [5]): 4 (1001 to 10,000 colonies (thus 10,000 cfu/mL to 100,000 cfu/mL)); Grade code, C. albicans, 30 Days (Candida albicans; [6]): 1 (1 to 51 colonies counted (thus 10 to 510 cfu/mL))
CCCCCCC(O)CO (centres unmarked) [CG, 1,2-octanediol] |  |  |  |  |  |  |  |  |  |  |  |  |  |  |  |  |  |  | 4 | 3 (101 to 1000 colonies (thus 1000 to 10,000 cfu/mL)) | Grade code, A. niger, 13 Day (Aspergillus niger; 13 days incubation, listed as 0.25% CG): 4; Grade code, A. niger, 13 Day (Aspergillus niger; 13 days incubation, listed as 0.5% CG): 2 (Countable (11 to 100 colonies)); Grade code, A. niger, 30 Day (Aspergillus niger; 30 days incubation, listed as 0.25% CG): 4; Grade code, A. niger, 30 Day (Aspergillus niger; 30 days incubation, listed as 0.5% CG): 1 (Countable (1 to 10 colonies)); Grade code, C. albicans, 14 Day (Candida albicans; 14 days incubation): 0 (No growth detected or <1 colony (thus <10 cfu/mL)); Grade code, C. albicans, 30 Days (Candida albicans; 30 days incubation): 0 (No growth detected or <1 colony (thus <10 cfu/mL))
O=C([O-])CN(CCN(CC(=O)O)CC(=O)O)CC(=O)[O-].[Na+].[Na+] [EDTA, ethylenediaminetetraacetic acid disodium salt] |  |  |  |  |  |  |  |  |  |  |  |  |  |  |  |  |  |  | 4 | 4 (1001 to 10,000 colonies (thus 10,000 cfu/mL to 100,000 cfu/mL)) | Grade code, A. niger, 13 Day (Aspergillus niger; 13 days incubation): 4; Grade code, A. niger, 30 Day (Aspergillus niger; 30 days incubation): 4; Grade code, C. albicans, 14 Day (Candida albicans; 14 days incubation): 5 (More than 10,000 colonies estimated (thus >100,000 cfu/mL)); Grade code, C. albicans, 30 Days (Candida albicans; 30 days incubation): 5 (More than 10,000 colonies estimated (thus >100,000 cfu/mL))
CC1(C)C(O)C(C)(C)C1O (centres unmarked) [TMCD, 2,2,4,4-tetramethyl-1,3-cyclobutanediol] | 5 | 5 | 5 | 4 | 4 | 4 | 3 (Individual colonies not countable; >75% of plate covered with growth) | 2 (Countable (11 to 100 colonies)) | 3 (Individual colonies not countable; >75% of plate covered with growth) | 4 (1001 to 10,000 colonies (thus 10,000 cfu/mL to 100,000 cfu/mL)) | 4 (1001 to 10,000 colonies (thus 10,000 cfu/mL to 100,000 cfu/mL)) | 4 (1001 to 10,000 colonies (thus 10,000 cfu/mL to 100,000 cfu/mL)) | 3 (101 to 1000 colonies (thus 1000 to 10,000 cfu/mL)) | 4 (1001 to 10,000 colonies (thus 10,000 cfu/mL to 100,000 cfu/mL)) | 4 (1001 to 10,000 colonies (thus 10,000 cfu/mL to 100,000 cfu/mL)) | 3 (101 to 1000 colonies (thus 1000 to 10,000 cfu/mL)) | 2 (52 to 100 colonies counted (thus 520 to 1000 cfu/mL)) | 2 (52 to 100 colonies counted (thus 520 to 1000 cfu/mL)) |  |  | 
